This is an account of results in ChEMBL document CHEMBL5113380, “Functionalized quinoxalinones as privileged structures with broad-ranging pharmacological activities” (Eur J Med Chem, 2022).

Data set [1] concerns the target T1, Glutamate receptor ionotropic AMPA (Homo sapiens, UniProt P42261+P42262+P42263+P48058). Put plainly: Agonist activity at AMPA receptor (unknown origin). It counts as protein-complex assay.
Data set [2] in a line: Metabolic stability in human liver microsomes assessed as compound remaining after 1 hr. The class given is ADME, Microsome. The following applies: read-out: Stability. (In general: Microsomes from liver hold many membrane-bound enzymes, among them those of drug oxidation.)
The subject of data set [3] is Rattus norvegicus. Description: Antiobesity activity in fasted Sprague-Dawley rat assessed as inhibition of food intake for more than 2 hrs when administered intraperitoneally. As to conditions: route ip. The class given is functional.
Data set [4] has as its system Rattus norvegicus. Put plainly: Antiobesity activity in fasted Sprague-Dawley rat assessed as inhibition of food intake for more than 2 hrs when administered orally. It counts as functional. The following applies: route po.
The subject of the next data set is CT26. Description: Antitumor activity against mouse CT26 cells xenografted in C57BL/6 mouse assessed as tumor suppression rate at 20 mg/kg, ip administered for 14 days. It counts as functional. The following applies: time 14 day.
Data set [5] concerns the target Bromodomain-containing protein 4 (Homo sapiens, UniProt O60885). Put plainly: Inhibition of BRD4 (unknown origin) using histone-H4 as substrate incubated for 15 mins and measured after 1 hr by AlphaScreen assay. On the technique in general: In Alpha technology, singlet oxygen from a donor bead excites a nearby acceptor bead.
In data set [6] the test system is HCT-116. Put plainly: Antiproliferative activity against human HCT-116 cells after 48 hrs by MTT assay. The class given is functional, cell-based. As to conditions: HCT-116, 48 h. A general note: Tetrazolium dyes change colour on reduction, which living cells bring about.
The subject of data set [7] is NCI-H460. Description: Antiproliferative activity against human NCI-H460 cells after 72 hrs by MTT assay. The class given is functional, cell-based. The following applies: NCI-H460, 72 h.
Another data set deals with L02. Description: Antiproliferative activity against human HL7702 cells after 72 hrs by MTT assay. The class given is functional, cell-based. The following applies: L02, 72 h.
A further data set has as its system B16-F10. Put plainly: Antiproliferative activity against mouse B16-F10 cells after 72 hrs by MTT assay. It counts as functional, cell-based. As to conditions: B16-F10, 72 h.
The test system of data set [8] is HCT-116. Description: Antiproliferative activity against human HCT-116 cells after 72 hrs by MTT assay. The following applies: HCT-116, 72 h. It counts as functional, cell-based.
The next data set concerns HeLa 229. Put plainly: Antiproliferative activity against human HeLa 229 cells after 72 hrs by MTT assay. It counts as functional, cell-based. As to conditions: HeLa 229, 72 h.
Data set [9] deals with T2, Fibroblast growth factor receptor 1 (Homo sapiens, UniProt P11362). Put plainly: Inhibition of FGFR1 (unknown origin) using ULight-JAK-1 (Tyr1023) peptide as substrate incubated for 90 mins and measured after 1 hr by LANCE Ultra TR-FRET assay.
Target sequence in this assay (P11362 whole entry): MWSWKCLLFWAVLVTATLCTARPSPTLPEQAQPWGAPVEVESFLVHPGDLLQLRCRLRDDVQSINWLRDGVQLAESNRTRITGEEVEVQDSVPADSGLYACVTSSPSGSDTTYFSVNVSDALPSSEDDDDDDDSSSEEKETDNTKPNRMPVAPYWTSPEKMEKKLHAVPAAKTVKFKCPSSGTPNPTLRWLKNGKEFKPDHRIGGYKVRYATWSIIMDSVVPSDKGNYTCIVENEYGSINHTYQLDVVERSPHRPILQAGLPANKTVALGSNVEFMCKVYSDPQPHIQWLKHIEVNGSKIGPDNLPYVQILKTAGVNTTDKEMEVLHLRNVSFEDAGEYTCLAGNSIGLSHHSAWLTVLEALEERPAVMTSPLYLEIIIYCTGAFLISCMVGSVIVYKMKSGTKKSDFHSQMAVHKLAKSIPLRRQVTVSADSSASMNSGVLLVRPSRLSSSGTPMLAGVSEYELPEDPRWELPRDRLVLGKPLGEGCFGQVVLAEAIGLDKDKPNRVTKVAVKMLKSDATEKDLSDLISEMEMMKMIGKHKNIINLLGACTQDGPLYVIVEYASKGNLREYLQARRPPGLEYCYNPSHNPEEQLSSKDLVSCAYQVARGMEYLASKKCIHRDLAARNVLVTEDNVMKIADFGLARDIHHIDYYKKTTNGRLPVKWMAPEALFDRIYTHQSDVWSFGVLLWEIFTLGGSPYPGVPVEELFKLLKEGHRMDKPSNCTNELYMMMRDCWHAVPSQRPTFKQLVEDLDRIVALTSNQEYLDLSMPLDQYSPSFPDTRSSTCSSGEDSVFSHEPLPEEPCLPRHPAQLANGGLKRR
Data set [10] concerns the target T2, Fibroblast growth factor receptor 1. Description: Inhibition of FGFR1 (unknown origin) using ULight-JAK-1 (Tyr1023) peptide as substrate incubated for 90 mins at 10 uM and measured after 1 hr by LANCE Ultra TR-FRET assay relative to control.
Target sequence in this assay (P11362 22-822 limits assumed): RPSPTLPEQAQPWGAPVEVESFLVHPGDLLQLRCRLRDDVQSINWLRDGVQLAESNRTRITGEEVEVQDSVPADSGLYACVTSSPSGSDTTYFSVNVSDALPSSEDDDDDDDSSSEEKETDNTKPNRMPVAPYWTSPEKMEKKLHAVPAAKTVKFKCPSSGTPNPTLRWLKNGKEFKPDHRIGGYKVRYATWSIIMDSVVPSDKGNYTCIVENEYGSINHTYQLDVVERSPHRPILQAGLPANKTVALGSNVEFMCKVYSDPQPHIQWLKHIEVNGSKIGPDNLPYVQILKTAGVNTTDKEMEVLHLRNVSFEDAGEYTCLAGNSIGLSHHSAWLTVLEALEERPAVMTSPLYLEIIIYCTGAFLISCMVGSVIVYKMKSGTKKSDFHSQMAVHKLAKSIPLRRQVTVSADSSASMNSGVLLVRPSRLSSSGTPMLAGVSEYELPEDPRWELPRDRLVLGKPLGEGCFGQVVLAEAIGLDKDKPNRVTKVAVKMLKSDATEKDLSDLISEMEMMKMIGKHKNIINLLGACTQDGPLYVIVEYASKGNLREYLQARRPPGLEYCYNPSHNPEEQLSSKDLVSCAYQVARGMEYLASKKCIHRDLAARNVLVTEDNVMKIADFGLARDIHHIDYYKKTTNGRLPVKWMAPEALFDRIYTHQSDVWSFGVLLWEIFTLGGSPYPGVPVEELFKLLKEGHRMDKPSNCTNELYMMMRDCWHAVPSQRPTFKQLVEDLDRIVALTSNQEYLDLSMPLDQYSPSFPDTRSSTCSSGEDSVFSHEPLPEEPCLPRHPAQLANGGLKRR
For data set [11], the target named is Fibroblast growth factor receptor 3 (Homo sapiens, UniProt P22607). Put plainly: Inhibition of FGFR3 (unknown origin).
Data set [12] concerns the target Glutamate receptor ionotropic, kainate 2 (Homo sapiens, UniProt Q13002). Put plainly: Binding affinity to GluK2 receptor (unknown origin).
Data set [13] addresses T3, Glutamate receptor ionotropic, kainate 1 (Homo sapiens, UniProt P39086). Description: Binding affinity to GluK1 ligand binding domain (unknown origin).
Data set [14] deals with T3, Glutamate receptor ionotropic, kainate 1. Put plainly: Binding affinity to GluK1 receptor (unknown origin).
A further data set addresses Glutamate receptor 2 (Homo sapiens, UniProt P42262). Put plainly: Binding affinity to GluA2 receptor (unknown origin).
For data set [15], the target named is T1, Glutamate receptor ionotropic AMPA. Put plainly: Displacement of […] from AMPA receptor (unknown origin). It counts as protein-complex assay.
The target is the same in data set [16]. Description: Displacement of [3H]kainic acid from AMPA receptor (unknown origin). The class given is protein-complex assay.
For data set [17] the target is unchanged. Put plainly: Displacement of [3H]AMPA from AMPA receptor (unknown origin). It counts as protein-complex assay.
Another data set has as its system Trichomonas vaginalis. Description: Antiprotozoal activity against Trichomonas vaginalis. The class given is functional, organism-based.
Data set [18] can be described thus: Aqueous solubility of the compound at pH 7.4. It counts as physicochemical. As to conditions: buffer.
Data set [19] is described as follows: Metabolic stability in rat liver microsomes assessed as half-life. The class given is ADME, Microsome.
Data set [20] in a line: Binding affinity to Creatine kinase (CK) (unknown origin). Details: species or system Homo sapiens.
For data set [21], the species on record is Homo sapiens. Description: Binding affinity to Creatine kinase (CK) (unknown origin) relative to control.
The species named for data set [22] is Homo sapiens. Put plainly: Binding affinity to estrogen receptor (unknown origin) relative to control.
Data set [23] is described as follows: Binding affinity to estrogen receptor (unknown origin). Details: species or system Homo sapiens.
The nature of data set [24]: Antiproliferative activity against human U-87 MG cells. The class given is functional, cell-based, U-87MG ATCC.
A further data set concerns Candida albicans. Put plainly: Antifungal activity against Candida albicans assessed as diameter zone of inhibition. The class given is functional.
The subject of data set [25] is Staphylococcus aureus. Description: Antibacterial activity against methicillin-resistant Staphylococcus aureus. The class given is functional.
Data set [26] has as its target Voltage-gated inwardly rectifying potassium channel KCNH2 (Homo sapiens, UniProt Q12809). Put plainly: Inhibition of hERG. It counts as toxicity.
Another data set deals with Topoisomerase IV (Staphylococcus aureus, UniProt P0C1S7+P0C1U9). Put plainly: Inhibition of Staphylococcus aureus topoisomerase 4. It counts as protein-complex assay.
Data set [27] deals with Staphylococcus aureus. Description: Antibacterial activity against methicillin-sensitive Staphylococcus aureus. The class given is functional.
A further data set deals with MV4-11. Description: Antiproliferative activity against human MV4-11 cells. It counts as functional, cell-based.
Another data set deals with A549. Put plainly: Antiproliferative activity against human A549 cells. The class given is functional, cell-based.
Data set [28] relates to NCI-H460. Put plainly: Antiproliferative activity against human NCI-H460 cells. It counts as functional, cell-based.
Data set [29] addresses Hepatocyte growth factor receptor (Homo sapiens, UniProt P08581). Description: Inhibition of c-MET (unknown origin).
For another data set, the system named is HT-29. Put plainly: Antiproliferative activity against human HT-29 cells. The class given is functional, cell-based.

Converted amounts (≈) assume the structure as drawn.

Broadly, the EC50 is the concentration giving half of the maximal effect. What is called ED50 is the dose at which the effect has come halfway, by size or by number of responders. Broadly, the IC50 is the concentration that inhibits the measured activity by half. Higher therefore signals weaker potency. As usually defined, the inhibition is the share of the control response that was lost under treatment. Read a high inhibition as strong suppression. For orientation: Ki means the equilibrium dissociation constant of an inhibitor or competing ligand from its target. Low values mean tighter binding, high ones weaker binding. The MIC is the lowest concentration found to suppress growth. As usually defined, the solubility is the dissolved amount per volume that the medium holds. Low values mean little dissolved substance, high ones much dissolved substance. As usually defined, the half-life is how long it takes for the measured level to halve.

T3 sequence (P39086 whole entry, the tested form may be a part): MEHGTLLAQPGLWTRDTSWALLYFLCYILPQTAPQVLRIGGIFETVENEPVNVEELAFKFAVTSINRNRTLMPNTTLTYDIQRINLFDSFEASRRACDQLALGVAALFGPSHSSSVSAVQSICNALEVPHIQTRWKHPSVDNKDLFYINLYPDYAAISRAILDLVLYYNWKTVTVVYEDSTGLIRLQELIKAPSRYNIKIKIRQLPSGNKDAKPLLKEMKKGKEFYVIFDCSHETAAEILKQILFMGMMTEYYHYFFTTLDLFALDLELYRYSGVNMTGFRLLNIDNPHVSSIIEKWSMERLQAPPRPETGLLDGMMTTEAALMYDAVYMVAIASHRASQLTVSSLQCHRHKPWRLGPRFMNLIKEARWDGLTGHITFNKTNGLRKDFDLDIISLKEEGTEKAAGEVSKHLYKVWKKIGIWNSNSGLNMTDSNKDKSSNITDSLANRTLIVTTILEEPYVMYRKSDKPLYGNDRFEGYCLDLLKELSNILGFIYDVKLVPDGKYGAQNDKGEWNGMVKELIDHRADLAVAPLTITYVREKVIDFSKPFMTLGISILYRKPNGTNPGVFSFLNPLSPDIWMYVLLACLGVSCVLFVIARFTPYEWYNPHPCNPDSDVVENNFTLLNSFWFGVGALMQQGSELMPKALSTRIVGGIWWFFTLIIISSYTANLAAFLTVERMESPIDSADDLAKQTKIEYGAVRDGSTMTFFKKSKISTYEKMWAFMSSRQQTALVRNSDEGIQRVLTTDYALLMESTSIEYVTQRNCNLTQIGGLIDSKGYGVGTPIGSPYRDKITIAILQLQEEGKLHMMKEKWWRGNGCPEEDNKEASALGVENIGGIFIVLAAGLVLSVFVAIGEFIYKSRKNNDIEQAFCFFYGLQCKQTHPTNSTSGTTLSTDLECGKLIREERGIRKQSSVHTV
Hepatocyte growth factor receptor, sequence (P08581 whole entry): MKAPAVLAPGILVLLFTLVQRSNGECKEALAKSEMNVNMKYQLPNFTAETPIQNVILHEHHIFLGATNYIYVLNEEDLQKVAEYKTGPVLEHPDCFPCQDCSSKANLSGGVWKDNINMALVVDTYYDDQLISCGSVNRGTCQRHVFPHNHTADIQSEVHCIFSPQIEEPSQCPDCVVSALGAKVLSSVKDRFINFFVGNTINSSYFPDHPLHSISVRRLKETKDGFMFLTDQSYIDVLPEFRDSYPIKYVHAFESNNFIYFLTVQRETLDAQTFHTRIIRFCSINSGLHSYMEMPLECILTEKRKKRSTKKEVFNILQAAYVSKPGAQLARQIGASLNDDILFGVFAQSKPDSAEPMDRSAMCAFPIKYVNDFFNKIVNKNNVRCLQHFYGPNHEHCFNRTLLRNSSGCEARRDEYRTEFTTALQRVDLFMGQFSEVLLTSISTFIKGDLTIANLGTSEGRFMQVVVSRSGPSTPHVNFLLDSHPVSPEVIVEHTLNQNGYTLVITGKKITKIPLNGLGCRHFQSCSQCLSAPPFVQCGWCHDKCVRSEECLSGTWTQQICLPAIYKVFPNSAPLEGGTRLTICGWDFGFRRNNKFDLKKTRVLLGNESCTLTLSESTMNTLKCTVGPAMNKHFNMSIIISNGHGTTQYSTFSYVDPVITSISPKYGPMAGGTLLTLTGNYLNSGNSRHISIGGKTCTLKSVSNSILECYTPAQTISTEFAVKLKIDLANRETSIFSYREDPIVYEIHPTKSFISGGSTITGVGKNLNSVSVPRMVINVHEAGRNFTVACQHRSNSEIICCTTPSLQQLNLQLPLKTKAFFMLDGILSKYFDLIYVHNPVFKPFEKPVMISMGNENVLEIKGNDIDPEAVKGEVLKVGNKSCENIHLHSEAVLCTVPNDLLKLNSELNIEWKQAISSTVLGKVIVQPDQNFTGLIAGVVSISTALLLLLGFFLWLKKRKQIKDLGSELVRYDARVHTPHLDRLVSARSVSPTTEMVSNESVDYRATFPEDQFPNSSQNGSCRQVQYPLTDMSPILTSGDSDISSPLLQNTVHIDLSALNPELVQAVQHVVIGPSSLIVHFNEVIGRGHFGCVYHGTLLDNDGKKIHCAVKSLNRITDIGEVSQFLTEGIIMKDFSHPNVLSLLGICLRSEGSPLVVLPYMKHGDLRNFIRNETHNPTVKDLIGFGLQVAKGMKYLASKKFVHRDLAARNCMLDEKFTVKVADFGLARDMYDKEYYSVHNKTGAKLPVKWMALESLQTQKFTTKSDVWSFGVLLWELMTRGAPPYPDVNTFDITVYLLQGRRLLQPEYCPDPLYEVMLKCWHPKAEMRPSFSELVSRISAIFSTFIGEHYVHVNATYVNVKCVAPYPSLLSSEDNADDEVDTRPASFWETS
Voltage-gated inwardly rectifying potassium channel KCNH2, sequence (Q12809 whole entry): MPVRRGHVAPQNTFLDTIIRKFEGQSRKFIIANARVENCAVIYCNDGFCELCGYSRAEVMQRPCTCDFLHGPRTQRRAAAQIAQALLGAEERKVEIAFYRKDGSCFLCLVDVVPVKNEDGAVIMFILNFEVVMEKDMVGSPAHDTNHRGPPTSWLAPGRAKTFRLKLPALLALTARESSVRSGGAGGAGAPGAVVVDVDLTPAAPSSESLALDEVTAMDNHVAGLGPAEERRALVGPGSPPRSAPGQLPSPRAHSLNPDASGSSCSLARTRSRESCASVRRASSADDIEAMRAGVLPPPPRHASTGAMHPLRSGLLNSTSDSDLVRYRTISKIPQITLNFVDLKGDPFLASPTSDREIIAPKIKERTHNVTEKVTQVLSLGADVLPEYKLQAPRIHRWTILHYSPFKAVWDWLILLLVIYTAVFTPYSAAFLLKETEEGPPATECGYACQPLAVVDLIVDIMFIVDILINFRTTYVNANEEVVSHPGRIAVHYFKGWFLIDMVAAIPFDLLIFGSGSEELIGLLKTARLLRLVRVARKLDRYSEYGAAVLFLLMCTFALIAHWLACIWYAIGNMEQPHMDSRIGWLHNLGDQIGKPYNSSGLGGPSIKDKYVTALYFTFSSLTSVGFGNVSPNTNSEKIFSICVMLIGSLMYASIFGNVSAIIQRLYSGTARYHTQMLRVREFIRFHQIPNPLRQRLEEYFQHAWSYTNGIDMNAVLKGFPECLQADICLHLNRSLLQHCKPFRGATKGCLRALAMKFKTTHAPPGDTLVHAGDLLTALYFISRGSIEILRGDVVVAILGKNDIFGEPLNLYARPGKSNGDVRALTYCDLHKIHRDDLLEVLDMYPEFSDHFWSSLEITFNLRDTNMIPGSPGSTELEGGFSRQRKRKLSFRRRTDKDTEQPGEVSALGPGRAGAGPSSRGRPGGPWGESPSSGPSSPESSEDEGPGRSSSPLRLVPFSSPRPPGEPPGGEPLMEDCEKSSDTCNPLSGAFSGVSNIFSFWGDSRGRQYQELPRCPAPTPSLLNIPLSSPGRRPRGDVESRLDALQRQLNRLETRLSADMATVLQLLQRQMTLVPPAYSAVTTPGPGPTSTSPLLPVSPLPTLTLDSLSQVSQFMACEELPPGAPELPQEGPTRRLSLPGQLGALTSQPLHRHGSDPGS

In turn, `N[C@@H](Cn1c(=O)c(=O)[nH]c2ccccc21)C(=O)O` returned an EC50 in data set [1] of 3 µM.

In the case of `COc1ccc(N2CCN(CCCNC(=O)Cn3c(=O)c4cccn4c4c(C)ccnc43)CC2)cc1`, the remaining at 1 h in data set [2] stood at 22%.

As to `O=C1Nc2cc(Cl)c(Cl)cc2N2CCNC[C@H]12`, the ED50 is 2 mg/kg with Rattus norvegicus [3] and 10 mg/kg in the data set with Rattus norvegicus [4].

In the case of `Cc1noc(C)c1-c1ccc2c(c1)C(c1ccccc1)N(Cc1cn(CCOCCOCCOCCn3cc(CC4C(=O)N(C)c5ccc(-c6c(C)noc6C)cc5N4c4ccccc4)nn3)nn1)C(=O)N2C` (configuration not stated), the Activity in the data set with CT26 was 56.1%. Moreover, the IC50 in [5] came out at 0.0077 µM; in the data set with HCT-116 [6] it was 0.162 µM.

On to `O=c1[nH]c2ccccc2nc1/C=C/c1ccccn1`, for which the IC50 in the data set on NCI-H460 [7] is 0.46 µM; in the data set with L02, > 100 µM; in the data set on B16-F10, 0.058 µM; in the data set on HCT-116 [8] it was 0.27 µM; in the data set with HeLa 229 it was 2.89 µM; in [9] it was 15.3 µM. In data set [10], this compound had an inhibition of 79.3%.

For the compound `O=c1c(/C=C/c2ccccc2Cl)nc2ccccc2n1Cc1ccccc1`, the IC50 with NCI-H460 [7] is 18.1 µM; in data set [11], 94.5 µM; with L02, > 100 µM; in the data set on B16-F10, 3.39 µM; with HCT-116 [8] it was > 50 µM; in the data set with HeLa 229, > 50 µM. For the same compound, inhibition in data set [9] was half-maximal at 25.7 µM (IC50).

`N[C@@H](CCc1ccc2[nH]c(=O)c(=O)[nH]c2c1)C(=O)O`: the Ki in data set [12] was 9.52 µM; in data set [13], 37.1 µM; in data set [14], 16.1 µM; at Glutamate receptor 2, 21.3 µM; in data set [15], 78 µM. The IC50 was 126 µM in data set [16] and 26 µM in data set [17].

Compound `CCOC(=O)C(C)c1nc2ccc(C(F)(F)F)cc2[nH]c1=O` (configuration not stated) showed an MIC in the data set on Trichomonas vaginalis of 100 µg/mL (≈ 318 µM).

On to `CC[C@H]1C(=O)N(C)c2ccc(F)cc2N1C(=O)c1ccc(O)cc1O`, for which, in [18], the solubility is > 100 µg/mL. Besides, in [19], the half-life is > 30 min. In data set [20], the EC50 was found to be 0.169 µM. For the same compound, the results for the Activity in the data set listed under Homo sapiens [21] and in the data set listed under Homo sapiens [22] were 36% and 96%, respectively. The compound further displayed an IC50 in data set [23] of 0.02 µM.

In data set [24], `COc1cc2c(Oc3ccc(NC(=O)c4nc5ccccc5n(C5CCCCC5)c4=O)cc3F)ccnc2cc1OCCCN1CCOCC1` had an IC50 of 0.81 µM.

As for `CC(C)=NNc1nc2ccccc2[nH]c1=O`, the “diameter of the inhibition zone (DIZ)” value in the data set on Candida albicans is 31 mm.

As for `COc1ccc2nccc(CC[C@H]3OC[C@H](NC(=O)c4ccc5c(c4)OCCO5)CO3)c2c1`, the MIC against Staphylococcus aureus [25] and in the data set on Staphylococcus aureus [27] was 1 µg/mL (≈ 2.22 µM) each time. Moreover, the IC50 in [26] is > 100 µM; on Topoisomerase IV, > 200 µM.

Turning to `CCC1C(=O)Nc2ccc(-c3c(C)noc3C)cc2N1Cc1ccccc1` (configuration not stated), the IC50 in the data set with MV4-11 stood at 0.253 µM; in data set [5], 0.073 µM.

Consider `O=C(Nc1ccc(Oc2ccnc(NC(=O)C3CC3)c2)cc1)c1nc2ccccc2n(-c2ccc(F)cc2)c1=O`, for which the IC50 was found to be 1.57 µM in the data set with A549, 0.94 µM with NCI-H460 [28], 0.00191 µM in data set [29] and 0.65 µM in the data set on HT-29.
